Experimental data as given in patent US9662322B2 (TEVA PHARMACEUTICAL INDUSTRIES, LTD., priority 2014, dated 2017).

How the values were obtained:
[1] = test system: subjects with relapsing remitting multiple sclerosis (RRMS); test: ALLEGRO Phase III trial: safety and tolerability; format: in vivo, human
Experimental: The following assessments were performed at specified time points: • 1. Vital signs were measured at each study visit. • 2. A physical examination is performed at months −1 (screening), 0 (baseline) 1, 3, 6, 12, 18 and 24 (termination/early discontinuation core study). In case of the 6 months extended study, additional examination was performed at month 30 (termination/early discontinuation of extended study). • 3. The following safety clinical laboratory tests were performed: • a. Complete blood count (CBC) with differential—at all scheduled visits. A reticulocyte count was added to the CBC at months 0 (baseline) and 24/30 (termination/early discontinuation). • b. Serum chemistry (including electrolytes, liver enzymes, direct and total bilirubin and pancreatic amylase and CPK), and urinalysis—at all scheduled visits. • c. A rapid urine β-hCG test was performed in women of child-bearing potential at baseline (month 0) and at each scheduled study visit thereafter (at site). • d. β-hCG in women of child-bearing potential was performed at all scheduled visits. • e. Starting after visit Month 3 a rapid urine β-hCG test was performed in women of child-bearing potential every 28 (±2) days. The subject was contacted by telephone within 72 hours after the test was scheduled to be performed and asked specific questions regarding the test. In case of suspected pregnancy (positive urine β-hCG test result), the caller made sure that the study drug has been discontinued and the subject was instructed to arrive at the site as soon as possible with all study drugs. • 4. Markers of inflammation (serum conventional C-reactive protein and fibrinogen)—at screening, baseline and all scheduled visits thereafter. • 5. During the first 3 months periodical phone calls were placed by the site personnel every two weeks. […] ECG was performed at months −1 (screening; additional recording, up to 30 minutes apart is performed if QTc is […] 450 msec), (baseline; three recordings, 15 minutes apart), 1, 2, 3, 6, 12, 18 and 24 (termination/early discontinuation). In case of the 6 months extended study, ECG is performed at month 30 (termination/early discontinuation of the extended study). • 7. Chest X-ray is performed at months −1 (screening), (if not performed within 7 months prior to the screening visit). • 8. Adverse Events (AEs) are monitored throughout the study. • 9. Concomitant medications are monitored throughout the study. • 10. Neurological evaluations, including Expanded Disability Status Scale (EDSS), 25 foot walk test/Ambulation Index (AI), Functional systems (FS) are performed at months −1 (screening), 0 (baseline) and every 3 months during the study and the extended study period. • 11. MS functional Composite (MSFC) was assessed at months −1 (screening) (three practices for training purposes only), at month 0 (baseline), 6, 12, 18 and 24 (termination/early discontinuation). In case of the 6 months extended study, the last MSFC was performed at months 30 (termination/early discontinuation of the extended study). • 12. Subject-reported fatigue was assessed by the Modified Fatigue Impact Scale (MFIS) at months 0, 6, 12, 18, and 24 (termination/early discontinuation). In case of the 6 months extended study, additional MFIS was performed at month 30 (termination/early discontinuation of the extended study). • 13. The general health status was assessed by the EuroQoL (EQ5D) questionnaire at month 0 (baseline) and month 24 (termination/early discontinuation of the study). In case of the 6 months extended study, the last EuroQoL (EQ5D) was performed at month 30 (termination/early discontinuation of the extended study) instead of month 24. • 14. The general health status was assessed by the Short-Form general health survey (SF-36) subject-reported questionnaire at month 0 (baseline) and every 6 months thereafter, until termination/early discontinuation. • 15. […]

[2] = test system: subjects with relapsing remitting multiple sclerosis (RRMS); test: ALLEGRO (MS-LAQ-301) Phase III trial: relapse endpoints; format: in vivo, human
Source text: The primary endpoint of the study was the number of confirmed relapses during the double-blind treatment period, which corresponds to the annualized relapse rate (ARR—number of relapses divided by total exposure of all patients). Secondary endpoints included disability as measured by Expanded Disability Status Scale (EDSS) changes confirmed at 3 months, and cumulative number of gadolinium enhancing (GdE) and new/enlarging T2 MRI lesions. […] Eligible subjects were equally randomized 1:1 into one of the following treatment arms: • 1. […] 21, 2007 (see, page 10, line 5 to page 11, line 3). • 2. Matching placebo for laquinimod arm: one capsule is administered once daily. The primary endpoint was the number of confirmed relapses during the double-blind study period. A relapse was defined as the appearance of one or more new neurological abnormalities or the reappearance of one or more previously observed neurological abnormalities lasting for at least 48 hours and after an improved neurological state for at least 30 days. An event was counted as a relapse if the subject's symptoms were accompanied by observed objective neurological changes consistent with at least one of the following: an increase of at least 0.5 in the EDSS score; an increase of one grade in two or more of the seven functional systems; or an increase of two grades in one functional system. Standardized treatment of relapses was intravenous methylprednisolone 1 g/day for up to five consecutive days based on the treating neurologist's decision. The number of confirmed relapses (and Annualized relapse rate) during the double blind study period. The analysis of the total number of confirmed relapses during the study period is based on baseline adjusted Quasi-Likelihood (over-dispersed) Poisson Regression. Using the Poisson regression with the treatment group as a covariate, the ARR of each group was calculated for the intent-to-treat (ITT) cohort as the total number of confirmed relapses for all patients in each group divided by the total patient years in that group. In addition to the treatment group, the following covariates were included: baseline EDSS score, log of the (prior 2-year number of relapses +1) and country or geographical region.

relapsing MS = conditions: cited from earlier work
[3] = post-hoc, vs placebo, listed as laquinimod

Which results are given for CCN(C(=O)c1c(O)c2c(Cl)cccc2n(C)c1=O)c1ccccc1 [Laquinimod, laquinimod]?
Deaths ([1]; 0.6 mg daily, 24 months): No deaths; ALT elevations ≧5×ULN, patients ([1]; human, in vivo, 24 months): 8; Abdominal pain, % of patients ([1]; human, in vivo, 24 months): 5.8%; Adverse events, number ([1]; human, in vivo, 24 months): 3309; Appendicitis ([1]; human, in vivo, 24 months): 5 cases; Back pain, % of patients ([1]; human, in vivo, 24 months): 16.4%; Cough, % of patients ([1]; human, in vivo, 24 months): 7.5%; Neoplasms ([1]; human, in vivo, 24 months): 8 cases; Patients reporting 1 or more adverse events ([1]; human, in vivo, 24 months): 87%; Serious adverse events (SAEs) reported, total ([1]; human, in vivo, 24 months): 122; Shift to ALT ≧3×ULN and <5×ULN, % of patients ([1]; human, in vivo, 24 months): 4.9%; Study discontinuation associated with these adverse events (abdominal pain, back pain, cough) ([1]; human, in vivo, 24 months): 3%; Treatment discontinuation due to ALT≧3 and <5×ULN, patients ([1]; human, in vivo, 24 months): 7; Liver failure ([1]; in vivo): no cases of liver failure; Relapses requiring hospitalization (annualized rate) ([2]; post-hoc): 0.071; ARR 1st year, Effect ([2]; post-hoc, vs placebo): 24% reduction; ARR by median relapse duration: >34 days, Effect ([2]; post-hoc, vs placebo): 1.3% reduction; ARR by median relapse duration: ≦34 days, Effect ([2]; post-hoc, vs placebo): 37% reduction; ARR for dropouts, Effect ([2]; post-hoc, vs placebo): 26% reduction; ARR, Full recovery, Effect ([2]; post-hoc, vs placebo): 13% reduction; ARR, No recovery, Effect ([2]; post-hoc, vs placebo): 24% reduction; Relapses requiring IV steroids, Effect ([2]; post-hoc, vs placebo): 27% reduction; Relapses requiring hospitalization, Effect ([2]; post-hoc, vs placebo): 38% reduction; Unconfirmed relapses, Effect ([2]; post-hoc, vs placebo): 17% reduction; Relapses requiring IV steroids, Effect [2, 3]: 27 % reduction; Relapses requiring hospitalization, Effect [2, 3]: 38 % reduction; ARR, No recovery ([2]; post-hoc, recovery refers to EDSS before and after attack): 0.06; Annualized rate of relapses requiring hospitalization and/or IV steroids, Effect ([2]; vs placebo): 27% reduction; Relapse-free during study, increase in odds to be relapse free ([2]; vs placebo): 55% increase odds to; Relapse-free during study, increase in odds to be relapse free ([2]; vs placebo, listed as laquinimod): 55%; Development of active MRI lesions (relapsing MS): reduce development of active MRI lesions
